Data as given in PubChem BioAssay (NCI).
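96-well plates; 48 h exposure; 5 concentrations. Endpoints by linear interpolation between flanking doses. Not reached: highest tested concentration assigned. TGI marks complete inhibition of growth.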

Key:
Experiment in all cases: NCI anticancer screen, dose series, 48 h
786-0 renal = tested on: 786-0 renal
A498 renal = tested on: A498 renal
A549 NSCLC = tested on: A549 NSCLC
ACHN renal = tested on: ACHN renal
BT-549 breast = tested on: BT-549 breast
CAKI-1 renal = tested on: CAKI-1 renal
CCRF-CEM leukemia = tested on: CCRF-CEM leukemia
COLO 205 colon = tested on: COLO 205 colon
DU-145 prostate = tested on: DU-145 prostate
EKVX NSCLC = tested on: EKVX NSCLC
HCC-2998 colon = tested on: HCC-2998 colon
HCT-116 colon = tested on: HCT-116 colon
HCT-15 colon = tested on: HCT-15 colon
HL-60(TB) leukemia = tested on: HL-60(TB) leukemia
HOP-62 NSCLC = tested on: HOP-62 NSCLC
HOP-92 NSCLC = tested on: HOP-92 NSCLC
HS 578T breast = tested on: HS 578T breast
HT29 colon = tested on: HT29 colon
IGROV1 ovarian = tested on: IGROV1 ovarian
K-562 leukemia = tested on: K-562 leukemia
KM12 colon = tested on: KM12 colon
LOX IMVI melanoma = tested on: LOX IMVI melanoma
M14 melanoma = tested on: M14 melanoma
MALME-3M melanoma = tested on: MALME-3M melanoma
MCF7 breast = tested on: MCF7 breast
MDA-MB-231 breast = tested on: MDA-MB-231 breast
MDA-MB-435 = tested on: MDA-MB-435
MDA-N = tested on: MDA-N
MOLT-4 leukemia = tested on: MOLT-4 leukemia
NCI-H226 lung = tested on: NCI-H226 lung
NCI-H23 lung = tested on: NCI-H23 lung
NCI-H460 lung = tested on: NCI-H460 lung
NCI-H522 lung = tested on: NCI-H522 lung
NCI/ADR-RES ovarian = tested on: NCI/ADR-RES ovarian
OVCAR-3 ovarian = tested on: OVCAR-3 ovarian
OVCAR-4 ovarian = tested on: OVCAR-4 ovarian
OVCAR-5 ovarian = tested on: OVCAR-5 ovarian
OVCAR-8 ovarian = tested on: OVCAR-8 ovarian
PC-3 prostate = tested on: PC-3 prostate
RPMI-8226 leukemia = tested on: RPMI-8226 leukemia
RXF 393 renal = tested on: RXF 393 renal
SF-268 CNS = tested on: SF-268 CNS
SF-295 CNS = tested on: SF-295 CNS
SF-539 CNS = tested on: SF-539 CNS
SK-MEL-2 melanoma = tested on: SK-MEL-2 melanoma
SK-MEL-28 melanoma = tested on: SK-MEL-28 melanoma
SK-MEL-5 melanoma = tested on: SK-MEL-5 melanoma
SN12C renal = tested on: SN12C renal
SNB-19 CNS = tested on: SNB-19 CNS
SNB-75 CNS = tested on: SNB-75 CNS
SR leukemia = tested on: SR leukemia
SW-620 colon = tested on: SW-620 colon
TK-10 renal = tested on: TK-10 renal
U251 CNS = tested on: U251 CNS
UACC-257 melanoma = tested on: UACC-257 melanoma
UO-31 renal = tested on: UO-31 renal
SK-OV-3 ovarian = tested on: SK-OV-3 ovarian
T-47D breast = tested on: T-47D breast
UACC-62 melanoma = tested on: UACC-62 melanoma

Measured: TGI

CCCCCc1cc2cc3c(c(O)c2c(=O)[nH]1)C1(CCC3)C(=O)c2c(O)ccc(O)c2C1=O
not listed: SK-OV-3 ovarian | T-47D breast | UACC-62 melanoma
> 100 µM: all other assays above

CC(=O)NC1C(OCc2ccccc2)OC(CO)C(O)C1OC(C)C(=O)NC(C(=O)NC(CCC(=O)NCCCNc1ccc([N+](=O)[O-])c2[nH]c3ccccc3c(=O)c12)C(N)=O)C(C)C (stereo not given)
not listed: HCC-2998 colon | K-562 leukemia | MALME-3M melanoma | RPMI-8226 leukemia | RXF 393 renal | SR leukemia
> 100 µM: all other assays above

O=C(O)C(Cc1ccccc1)Cc1ccccc1
not listed: HCC-2998 colon | HOP-92 NSCLC | SR leukemia
> 100 µM: all other assays above
